Measured values as given in patent US9434727B2, “Substituted 4-phenylpiperidines, their preparation and use” (THE TRUSTEES OF COLUMBIA UNIVERSITY IN THE CITY OF NEW YORK, priority 2014, dated 2016).

Legend:
RBP4-TTR interaction = RBP4-TTR interaction (Homo sapiens (Human), UniProt P02753); experiment: TR-FRET (HTRF) assay for retinol-induced RBP4-TTR interaction; assay type: biochemical; conditions: in the presence of 1 μM retinol; read-out: HTRF assay for antagonists of RBP4-TTR interaction: IC50
Excerpt: TR-FRET assay for retinol-induced RBP4-TTR interaction Binding of a desired RBP4 antagonist displaces retinol and induces hindrance for RBP4-TTR interaction resulting in the decreased FRET signal (FIG. 7). Bacterially expressed MBP-RBP4 and untagged TTR were used in this assay. […] Following cell lysis, recombinant RBP4 was purified from the soluble fraction using the ACTA FPLC system (GE Healthcare) equipped with the 5-ml the MBP Trap HP column. Human untagged TTR was purchased from Calbiochem. Untagged TTR was labeled directly with Eu^3+ Cryptate-NHS using the HTRF Cryptate Labeling kit from CisBio following the manufacturer's recommendations. HTRF assay was performed in white low volume 384 well plates (Greiner-Bio) in a final assay volume of 16 μl per well. The reaction buffer contained 10 mM Tris-HCl pH 7.5, 1 mM DTT, 0.05% NP-40, 0.05% Prionex, 6% glycerol, and 400 mM KF. […] Titration of test compounds in this assay was conducted in the presence of 1 μM retinol. All reactions were assembled in the dark under dim red light and incubated overnight at +4° C. wrapped in aluminum foil. TR-FRET signal was measured in the SpectraMax M5e Multimode Plate Reader (Molecular Device). […] The TR-FRET signal was expressed as the ratio of fluorescence intensity: Flu665/Flu620×10,000.

RBP4 = RBP4 (Homo sapiens (Human), UniProt P02753); experiment: Scintillation proximity (SPA) RBP4 binding assay; conditions: 10 nM 3H-Retinol, 50 nM biotinylated RBP4
Procedure: Scintillation Proximity RBP4 Binding Assay
Untagged human RBP4 purified from urine of tubular proteinuria patients was purchased from Fitzgerald Industries International. It was biotinylated using the EZ-Link Sulfo-NHS-LC-Biotinylation kit from Pierce following the manufacturer's recommendations. Binding experiments were performed in 96-well plates (OptiPlate, PerkinElmer) in a final assay volume of 100 μl per well in SPA buffer (IX PBS, pH 7.4, 1 mM EDTA, 0.1% BSA, 0.5% CHAPS). The reaction mix contained 10 nM ^3H-Retinol (48.7 Ci/mmol; PerkinElmer), 0.3 mg/well Streptavidin-PVT beads, 50 nM biotinylated RBP4 and a test compound. Nonspecific binding was determined in the presence of 20 μM of unlabeled retinol. The reaction mix was assembled in the dark under dim red light. The plates were sealed with clear tape (TopSeal-A: 96-well microplate, PerkinElmer), wrapped in the aluminum foil, and allowed to equilibrate 6 hours at room temperature followed by overnight incubation at +4° C. Radiocounts were measured using a TopCount NXT counter (Packard Instrument Company).

SMILES	IC50 (RBP4-TTR interaction)	IC50 (RBP4)
CC(=O)N1CCc2c(C(=O)N3CCC(c4cc(F)cc(F)c4C(F)(F)F)CC3)n[nH]c2C1 [Compound 131, 1-(3-(4-(3,5-Difluoro-2-(trifluoromethyl)phenyl)piperidine-1-carbonyl)-4,5-dihydro-1H-pyrazolo[3,4-c]pyridin-6(7H)-yl)ethanone]	10.9 nM	6.36 nM
N#Cc1ccc2nnc(C(=O)N3CCC(c4cc(F)cc(F)c4C(F)(F)F)CC3)n2c1 [Compound 132, 3-(4-(3,5-Difluoro-2-(trifluoromethyl)phenyl)piperidine-1-carbonyl)-[1,2,4]triazolo[4,3-a]pyridine-6-carbonitrile]	10.5 nM	6.75 nM
COC(=O)N1CCc2[nH]nc(C(=O)N3CCC(c4cc(F)cc(F)c4C(F)(F)F)CC3)c2C1 [Compound 138, Methyl 3-(4-(3,5-difluoro-2-(trifluoro-methyl)phenyl)piperidine-1-carbonyl)-6,7-dihydro-1H-pyrazolo[4,3-c]pyridine-5(4H)-carboxylate]	24.4 nM	10.1 nM
CC(=O)N1CCc2c(C(=O)N3CCC(c4cc(F)ccc4C(F)(F)F)CC3)n[nH]c2C1 [Compound 140, 1-(3-(4-(5-fluoro-2-(trifluoromethyl)phenyl)piperidine-1-carbonyl)-4,5-dihydro-1H-pyrazolo[3,4-c]pyridin-6(7H)-yl)ethanone]	21.9 nM	9.28 nM
CC(=O)N1CCc2c(C(=O)N3CCC(c4cc(F)ccc4Cl)CC3)n[nH]c2C1 [Compound 143, 1-(3-(4-(2-chloro-5-fluorophenyl)piperidine-1-carbonyl)-4,5-dihydro-1H-pyrazolo[3,4-c]pyridin-6(7H)-yl)ethanone]	52.3 nM	8.83 nM
CS(=O)(=O)N1CCc2[nH]nc(C(=O)N3CCC(c4cc(F)ccc4Cl)CC3)c2C1 [Compound 144, (4-(2-chloro-5-fluorophenyl)piperidin-1-yl)(5-(methylsulfonyl)-4,5,6,7-tetrahydro-1H-pyrazolo[4,3-c]pyridin-3-yl)methanone]	70.3 nM	6.17 nM
N#Cc1ccc2nnc(C(=O)N3CCC(c4cc(F)ccc4Cl)CC3)n2c1 [Compound 145, 3-(4-(2-Chloro-5-fluorophenyl)piperidine-1-carbonyl)-[1,2,4]triazolo[4,3-a]pyridine-6-carbonitrile]	67 nM	7.57 nM
O=C(c1n[nH]c2c1CCN(CC1CC1)C2)N1CCC(c2cccc(F)c2Cl)CC1 [Compound 146, (4-(2-chloro-3-(fluorophenyl)piperidin-1-yl)(6-cyclopropylmethyl)-4,5,6,7-tetrahydro-1H-pyrazolo[3,4-c]pyridine-3-yl)methanone]	36.5 nM	15.9 nM
COC(=O)N1CCc2c(C(=O)N3CCC(c4cccc(F)c4Cl)CC3)n[nH]c2C1 [Compound 147, Methyl 3-(4-(2-chloro-3-fluorophenyl)piperidine-1-carbonyl)-4,5-dihydro-1H-pyrazolo[3,4-c]pyridine-6(7H)-carboxylate]	25.5 nM	17.1 nM
CC(=O)N1CCc2c(C(=O)N3CCC(c4cccc(F)c4Cl)CC3)n[nH]c2C1 [Compound 150, 1-(3-(4-(2-chloro-3-fluorophenyl)piperidine-1-carbonyl)-4,5-dihydro-1H-pyrazolo[3,4-c]pyridin-6(7H)-yl)ethanone]	23.7 nM	4.84 nM
CS(=O)(=O)N1CCc2[nH]nc(C(=O)N3CCC(c4cccc(F)c4Cl)CC3)c2C1 [Compound 151]	67.7 nM	10.3 nM
N#Cc1ccc2nnc(C(=O)N3CCC(c4cccc(F)c4Cl)CC3)n2c1 [Compound 152, 3-(4-(2-chloro-3-fluorophenyl)piperidine-1-carbonyl)-[1,2,4]triazolo[4,3-a]pyridine-6-carbonitrile]	27.8 nM	3.1 nM
CC(=O)N1CCc2c(C(=O)N3CCC(c4cc(C(F)(F)F)cc(C(F)(F)F)c4)CC3)n[nH]c2C1 [Compound 153, 1-(3-(4-(3,5-bis(trifluoromethyl)phenyl)piperidine-1-carbonyl)-4,5-dihydro-1H-pyrazolo[3,4-c]pyridin-6(7H)-yl)ethanone]	833 nM	149 nM
CS(=O)(=O)N1CCc2[nH]nc(C(=O)N3CCC(c4cc(C(F)(F)F)cc(C(F)(F)F)c4)CC3)c2C1 [Compound 154, (4-(3,5-bis(trifluoromethyl)phenyl)piperidin-1-yl)(5-(methylsulfonyl)-4,5,6,7-tetrahydro-1H-pyrazolo[4,3-c]pyridin-3-yl)methanone]	385 nM	150 nM
CC(=O)N1CCc2c(C(=O)N3CCC(c4c(F)cccc4C(F)(F)F)CC3)n[nH]c2C1 [Compound 156, 1-(3-(4-(2-fluoro-6-(trifluoromethyl)phenyl)piperidine-1-carbonyl)-4,5-dihydro-1H-pyrazolo[3,4-c]pyridin-6 (7H)-yl) ethanone]	248 nM	19.4 nM
N#Cc1ccc2nnc(C(=O)N3CCC(c4c(F)cccc4C(F)(F)F)CC3)n2c1 [Compound 157, 3-(4-(2-fluoro-6-(trifluoromethyl)phenyl)piperidine-1-carbonyl)-[1,2,4]triazolo[4,3-a]pyridine-6-carbonitrile]	92 nM	5.84 nM
CC(=O)N1CCc2c(C(=O)N3CCC(c4ccc(F)cc4C(F)(F)F)CC3)n[nH]c2C1 [Compound 158, 1-(3-(4-(4-fluoro-2-(trifluoromethyl)phenyl)piperidine-1-carbonyl)-4,5-dihydro-1H-pyrazolo[3,4-c]pyridin-6(7H)-yl)ethanone]	36.8 nM	8.63 nM
N#Cc1ccc2nnc(C(=O)N3CCC(c4cccc(Cl)c4C(F)(F)F)CC3)n2c1 [Compound 162, 3-(4-(3-Chloro-2-(trifluoromethyl)phenyl)piperidine-1-carbonyl)-[1,2,4]triazolo[4,3-a]pyridine-6-carbonitrile]	10.7 nM	4.82 nM
CCN1CCc2[nH]nc(C(=O)N3CCC(c4cccc(F)c4Cl)CC3)c2C1 [Compound 163, (4-(2-Chloro-3-fluorophenyl)piperidin-1-yl)(5-ethyl-4,5,6,7-tetrahydro-1H-pyrazolo[4,3-c]pyridin-3-yl)methanone]	55.3 nM	15.3 nM
O=C(c1n[nH]c2c1CN(CC1CC1)CC2)N1CCC(c2cccc(F)c2Cl)CC1 [Compound 164, (4-(2-Chloro-3-fluorophenyl)piperidin-1-yl)(5-(cyclopropylmethyl)-4,5,6,7-tetrahydro-1H-pyrazolo[4,3-c]pyridin-3-yl)methanone]	75 nM	13.6 nM
O=C(c1n[nH]c2c1CN(C1COC1)CC2)N1CCC(c2cccc(F)c2Cl)CC1 [Compound 165, (4-(2-Chloro-3-fluorophenyl)piperidin-1-yl)(5-(oxetan-3-yl)-4,5,6,7-tetrahydro-1H-pyrazolo[4,3-c]pyridin-3-yl)methanone]	64.8 nM	15.6 nM
O=C(c1n[nH]c2c1CN(CCC(F)(F)F)CC2)N1CCC(c2cccc(F)c2Cl)CC1 [Compound 167, (4-(2-Chloro-3-fluorophenyl)piperidin-1-yl)(5-(3,3,3-trifluoropropyl)-4,5,6,7-tetrahydro-1H-pyrazolo[4,3-c]pyridin-3-yl)methanone]	48.8 nM	11.7 nM
O=C(c1n[nH]c2c1CN(C(=O)N1CCNCC1)C2)N1CCC(c2ccc(F)c(F)c2C(F)(F)F)CC1 [Compound 169, (4-(3,4-Difluoro-2-(trifluoromethyl)phenyl)piperidin-1-yl)(5-(piperazine-1-carbonyl)-1,4,5,6-tetrahydropyrrolo[3,4-c]pyrazol-3-yl)methanone]	55.8 nM	33 nM
